4 molecules from patent publication US7241784B2, “Carboxylic acid derivative and a pharmaceutical composition containing the derivative as active ingredient” (Ono Pharmaceutical Co., Ltd., priority 1998, dated 2007) can be followed below.

One assay deals with T1, human PPARγ (Homo sapiens, UniProt P37231).
T1 construct: expressed in transfected cells; host or cells: CV-1 cells
T1 sequence (P37231 204-505): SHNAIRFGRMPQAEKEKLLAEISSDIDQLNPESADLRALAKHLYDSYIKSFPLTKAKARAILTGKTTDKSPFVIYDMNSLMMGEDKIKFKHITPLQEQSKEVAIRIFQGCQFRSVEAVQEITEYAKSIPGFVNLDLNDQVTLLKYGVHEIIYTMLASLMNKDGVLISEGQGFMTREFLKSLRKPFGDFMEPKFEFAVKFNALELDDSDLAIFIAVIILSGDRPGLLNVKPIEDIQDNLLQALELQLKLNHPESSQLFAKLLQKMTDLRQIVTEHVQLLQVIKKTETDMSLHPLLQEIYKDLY
Nature of the assay: Luciferase assay using human PPARγ (Gal4-PPARγ LBD chimeric receptor, CV-1 cells). The conditions noted are these: PPARγ agonistic activity, compound 10 μM, luciferase activity of troglitazone (10 μM) defined as 1.0, 42 hours. The format is cell-based.

The target of the next assay is T2, human PPARα (Homo sapiens, UniProt Q07869).
T2 construct: expressed in transfected cells; host or cells: CV-1 cells
T2 sequence (Q07869 167-468): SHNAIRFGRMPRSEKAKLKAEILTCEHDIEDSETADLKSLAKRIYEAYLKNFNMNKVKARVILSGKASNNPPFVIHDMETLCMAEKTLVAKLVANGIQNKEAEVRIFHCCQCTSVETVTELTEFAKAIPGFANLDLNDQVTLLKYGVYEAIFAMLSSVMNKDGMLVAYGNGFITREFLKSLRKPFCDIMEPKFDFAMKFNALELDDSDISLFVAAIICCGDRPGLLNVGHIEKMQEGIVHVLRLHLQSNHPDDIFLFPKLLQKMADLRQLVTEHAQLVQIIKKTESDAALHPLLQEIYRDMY
Nature of the assay: Luciferase assay using human PPARα (Gal4-PPARα LBD chimeric receptor, CV-1 cells). The format is cell-based. The settings on record: PPARα agonistic activity, compound 10 μM, luciferase activity of carbacyclin (10 μM) defined as 1.0, 42 hours.

In the next assay the test system is SD rats. Nature of the assay: Hypocholesterolemic and hypolipidemic effects in SD rats given hypercholesterolemic food. The assay is classed as in vivo. The conditions noted are these: male SD rats, oral administration in 0.5% CMC, then hypercholesterolemic food, blood at 9:00 of the next day, 5 rats per group; for TC level: control 154 ± 8; for TG level: control 158 ± 19; for NEFA levle: control 537 ± 69. From the text: Hypocholesterolemic and Hypolipidemic Effects
Male, six-weeks old SD rats (five rats per group) were left to take milled diet and water ad libitum and were acclimatized for 1 week.
At 9:00 on the first day of the experiment (Day 0), blood sampling was done from tail vein. The rats were divided into some groups according to body weight, triglyceride (TG), non-esterified fatty acid (NEFA) and total cholesterol (TC) levels to minimize differences of the parameters among the groups. At 17:00 of the day, the compound of the present invention dissolved in 0.5% aqueous solution of carboxymethylcellulose (CMC) was orally administered, and thereafter, with hypercholesterolemic food (5.5% peanut oil, 1.5% cholesterol and 0.5% cholic acid were mixed with milled CRF-1 diet, Charles River Inc.) was given to the rats.
At 9:00 of the next day, blood sampling was done from tail vein. The lipid levels in blood (TG, NEFA and TC levels) after administration of the compounds of the present invention were measured. There was no significant difference of the food intake between the control group (provided only 0.5% CMC) and the group treated with the compounds of the present invention.

In the next assay the test system is KKAy/Ta mice. Nature of the assay: Hypoglycemic and hypolipidemic effects in KKAy/Ta mice. The conditions noted are these: male KKAy/Ta mice, food mixture containing 0.03% (w/w) compound for two days, 5 mice per group; for TG level on Day 3: control 523 ± 144; for glycemic level on Day 3: control 638 ± 63. The assay is classed as in vivo. The source says:
Hypoglycemic and Hypolipidemic Effects
Male, 7-weeks old KKAy/Ta mice weighed from 35 to 40 g (five mice per group) were pre-breaded for approximately one week and acclimatized for three days on milled diet. On the first day of the experiment (Day 0), mice were divided into some groups according to weight, plasma glucose and triglyceride (TG) levels to minimize the differences among groups. From the next day for two days they were given compounds by food mixture containing 0.03% (w/w) of the compound of the present invention or by milled diet only. At 13:00 of the third day, blood samples were collected to measure glucose and TG levels. Additionally, there was no significant difference in the food intake between control group (milled diet only) and compounds-treated group (milled diet containing 0.03% compounds).

Consider `Cc1oc(-c2ccccc2)nc1CCOCC#CCSCC(=O)O` [Example 5 (2), 2-(4-(2-(5-methyl-2-phenyloxazol-4-yl)ethoxy)-2-butynylthio)acetic acid], for which the “Relative Activity to a positive control compound (troglitazone = 1)” value (“Relative Activity … (troglitazone = 1)” for short) on human PPARγ is 2.6. Further, the “Relative Activity to a positive control compound (carbacyclin = 1)” value (shortened to “Relative Activity … (carbacyclin = 1)”) on human PPARα was found to be 2.9.

For `Cc1oc(-c2ccc3c(c2)OCO3)nc1CCOCC#CCSCC(=O)O` [Example 5 (11), 2-(4-(2-(5-methyl-2-(1,3-dioxaindan-5-yl)oxazol-4-yl)ethoxy)-2-butynylthio)acetic acid], the “Relative Activity … (troglitazone = 1)” value on human PPARγ came to 2.3. In addition, in the assay with SD rats, the TC level is 91 ± 6 mg/dL, the TG level came to 90 ± 14 mg/dL and the NEFA levle came out at 227 ± 17 μEq/l. Also, in the assay with KKAy/Ta mice, the “TG level on Day 3” value came to 140 ± 75 mg/dL and the “glycemic level on Day 3” value is 306 ± 72 mg/dL. Besides, the “Relative Activity … (carbacyclin = 1)” value on human PPARα stood at 1.7.

For `Cc1ccc(-c2nc(CCOCC#CCSCC(=O)O)c(C)o2)cc1` [Example 5 (10), 2-(4-(2-(5-methyl-2-(4-methylphenyl)oxazol-4-yl)ethoxy)-2-butynylthio)acetic acid], the “Relative Activity … (troglitazone = 1)” value at human PPARγ was 2.7. Further, in the assay with SD rats, the TC level was 88 ± 6 mg/dL, the TG level came to 95 ± 17 mg/dL and the NEFA levle came out at 334 ± 55 μEq/l. Further, in the assay with KKAy/Ta mice, the “TG level on Day 3” value was 111 ± 38 mg/dL and the “glycemic level on Day 3” value is 339 ± 74 mg/dL. Besides, on human PPARα, the “Relative Activity … (carbacyclin = 1)” value stood at 1.5.

With `Cc1oc(-c2ccccc2)nc1CCOCCCCSCC(=O)O` [Example 5 (8), 2-(4-(2-(5-methyl-2-phenyloxazol-4-yl)ethoxy)butylthio)acetic acid], the “Relative Activity … (troglitazone = 1)” value at human PPARγ is listed as 2.3. Moreover, the “Relative Activity … (carbacyclin = 1)” value on human PPARα came out at 2.2.
